The source of these data is US7592422B2, “Modified plasminogen activator inhibitor type-1 and methods based thereon” (Medical College of Ohio, priority 2002, dated 2009).

Data set [1] concerns chicken chorioallantoic membrane (angiogenesis in chick embryos). The experiment in a line: Chicken chorioallantoic membrane (CAM) assay. The class given is in vivo.
Experimental: The one-day-old fertilized eggs were incubated for three days in the water-jacketed incubator (38° C., 85% humidity). The eggs were cracked and the chick embryos with intact yolks were placed in plastic Petri dishes containing 10 ml of RPMI-1640 medium (38° C., 85% humidity, 3% of CO2). After 3 days of incubation, the methylcellulose disk containing inhibitor was implanted on the CAMs of the individual embryos. After 48 h of incubation, CAM of individual embryo was analyzed for formation of avascular zones and photographed. The angiostatic effect was determined as a percentage of the area of blood vessels under the methylcellulose disks (3-5 eggs for each concentration) in relation to the non-treated areas. The area below the dialysis bag and two non-treated areas were scanned and saved on computer disk as tif files. Color images were converted into black/white images, contrast was enhanced, and images were saved as 16-bitmap files using Paint Software (Microsoft Corporation, Redmond, Va.). Black/white images were converted into false color (rainbow striped) images using Transform2 Software (Fortner, Sterling, Va.). […] This method provides some quantification of angiogenesis.
A further data set deals with urokinase LMWt, Abbott (Homo sapiens, UniProt P00749). To be noted: 0.05 M Tris pH 8.8, 37° C., substrate 0.5 mM, urokinase at 1000 u/mL; cited from earlier work.
In another data set the target is urokinase HMWt, Choay (Homo sapiens, UniProt P00749). To be noted: 0.05 M Tris pH 8.8, 37° C., substrate 0.5 mM, urokinase at 1000 u/mL; cited from earlier work.

Turning to VEGF, the “vessel formation, positive control disk” value in data set [1] (methylcellulose disk containing VEGF) is “dense areas of newly formed vessels were developed”.
As for `O=C(O[C@@H]1Cc2c(O)cc(O)cc2O[C@@H]1c1cc(O)c(O)c(O)c1)c1cc(O)c(O)c(O)c1` [EGCG, epigallocatechin gallate], the “colour change of methylcellulose disks (sign of probable oxidation)” value in data set [1] (in methylcellulose disk on CAM) is reported as “the methylcellulose disks quickly change color”.
Take `N=C(N)NC(=O)c1nc(Cl)c(N)nc1N` [amiloride]: the “large avascular zones outside of areas covered by methylcellulose disk containing the inhibitor” value in data set [1] (48 h) is given as “The effect was observed”.
In the case of “Cbo-L-(γ)-Glu (α-t-BuO)-Gly-Arg-pNA.2AcOH [No. 244]”, the Vmax at urokinase LMWt, Abbott is on record as 0.53 μM mm-^1; on urokinase HMWt, Choay it was 0.54 μM mm-^1. Besides, the κm was 80 µM at urokinase LMWt, Abbott and 30 µM at urokinase HMWt, Choay.
